pEC50, pIC50: −log10 of the molar value.
Tests used:
[1] = Inhibition of HIV integrase 3' processing activity expressed in Escherichia coli; parameters: species or system Human immunodeficiency virus
[2] = Inhibition of HIV integrase strand transfer activity expressed in Escherichia coli; parameters: species or system Human immunodeficiency virus
[3] = biological target: Human immunodeficiency virus type 1 reverse transcriptase (Human immunodeficiency virus 1, UniProt Q72547); test: Inhibition of HIV1 reverse transcriptase
[4] = system: Human immunodeficiency virus 1; test: Antiviral activity against HIV1 3B infected in human CEM-SS cells assessed as inhibition of viral replication after 6 days by MTS assay; assay type: functional, organism-based; conditions: Human immunodeficiency virus 1, 3B, 144 h
[5] = Cytotoxicity in human CEM-SS cells after 6 days by MTS assay; assay type: cell-based
[6] = Therapeutic index, ratio of CC50 for human CEM-SS cells to EC50 for HIV1 3B; assay type: cell-based; conditions: read-out: Ratio CC50/EC50

SMILES | pIC50 [1] | pIC50 [2] | pIC50 [3] | pEC50 [4] | CC50 at 144 h [5] [µM] | selectivity ratio [6]
CC(C)c1c(Cc2ccc(F)cc2)n(COCc2ccccc2)c(=O)n(O)c1=O | < 3.48 | 5.14 | < 4.00 | < 5.00 | – | –
CCc1c(Cc2ccccc2)n(COCc2ccccc2)c(=O)n(O)c1=O | < 3.48 | 5.09 | 5.03 | 5.96 | > 20 | > 18
CC(C)c1c(Cc2ccc(F)cc2)n(COCc2ccc(F)cc2)c(=O)n(O)c1=O | < 3.48 | 5.26 | < 4.00 | < 5.00 | – | –
CC(C)c1c(Cc2ccccc2)n(COCc2ccc(F)cc2)c(=O)n(O)c1=O | < 3.48 | 5.46 | 6.77 | 7.62 | > 20 | > 830
CCOCn1c(Cc2ccccc2)c(C(C)C)c(=O)n(O)c1=O | < 3.48 | 4.07 | 4.89 | 5.37 | > 20 | > 4.7
CC(C)c1c(Cc2ccccc2)n(COCc2ccccc2)c(=O)[nH]c1=O | < 3.48 | < 3.48 | 7.40 | 7.89 | > 20 | > 1500
CC(C)c1c(Cc2ccccc2)n(COCc2ccccc2)c(=O)n(N)c1=O | < 3.48 | < 3.48 | 5.82 | < 5.00 | – | –
CC(C)c1c(Cc2ccccc2)n(COCc2ccccc2)c(=O)n(O)c1=O | < 3.48 | 4.68 | 5.21 | 8.10 | > 20 | > 2500
CCOCn1c(Cc2ccc(F)cc2)c(C(C)C)c(=O)n(O)c1=O | < 3.48 | 3.98 | < 4.00 | < 5.00 | – | –
